Legend:
Leaf [1] = test: Drug degradation in Solanum lycopersicum (tomato) plant leaves at 300 g/L treated under green house condition measured after 15 days relative to initial level; type: ADME; details: 360 h
Leaf [2] = test: Drug degradation in Solanum lycopersicum (tomato) plant leaves at 300 g/L treated under green house condition measured after 10 days relative to initial level; type: ADME; details: 240 h
Leaf [3] = test: Drug degradation in Solanum lycopersicum (tomato) plant leaves at 300 g/L treated under green house condition measured after 4 days relative to initial level; type: ADME; details: 96 h
Fruit [4] = test: Drug degradation in Solanum lycopersicum (tomato) plant fruits at 300 g/L treated under green house condition measured after 22 days relative to initial level; type: ADME; details: 528 h
[5] = Half life in Solanum lycopersicum (tomato) plant leaves at 300 g/L treated under green house condition; type: ADME, Leaf
Fruit [6] = test: Drug recovery in Solanum lycopersicum (tomato) plant fruits at 0.14 ug/g of spiking level; type: ADME
Fruit [7] = test: Drug degradation in Solanum lycopersicum (tomato) plant fruits at 300 g/L treated under green house condition measured after 8 days relative to initial level; type: ADME; details: 192 h
Leaf [8] = test: Residue remaining in Solanum lycopersicum (tomato) plant leaves at 300 g/L treated under green house condition measured after 11 days relative to initial level; details: 264 h
Leaf [9] = test: Drug degradation in Solanum lycopersicum (tomato) plant leaves at 300 g/L treated under green house condition measured after 1 day relative to initial level; type: ADME; details: 24 h
Leaf [10] = test: Drug residue remaining in Solanum lycopersicum (tomato) plant leaves at 300 g/L treated under green house condition measured after 22 days relative to initial level; details: 528 h
Fruit [11] = test: Residue remaining in Solanum lycopersicum (tomato) plant fruits at 300 g/L treated under green house condition measured after 3 days relative to initial level; details: 72 h
Fruit [12] = test: Drug degradation in Solanum lycopersicum (tomato) plant fruits at 300 g/L treated under green house condition measured after 15 days relative to initial level; type: ADME; details: 360 h
Leaf [13] = test: Drug degradation in Solanum lycopersicum (tomato) plant leaves at 300 g/L treated under green house condition measured after 5 days relative to initial level; type: ADME; details: 120 h
Leaf [14] = test: Drug degradation in Solanum lycopersicum (tomato) plant leaves at 300 g/L treated under green house condition measured after 3 days relative to initial level; type: ADME; details: 72 h
[15] = Half life in Solanum lycopersicum (tomato) plant fruits at 300 g/L treated under green house condition; type: ADME, Fruit
Leaf [16] = test: Drug recovery in Solanum lycopersicum (tomato) plant leaves at 1.83 ug/cm'2 of spiking level; type: ADME
Leaf [17] = test: Drug degradation in Solanum lycopersicum (tomato) plant leaves at 300 g/L treated under green house condition measured after 6 days relative to initial level; type: ADME; details: 144 h
Fruit [18] = test: Drug degradation in Solanum lycopersicum (tomato) plant fruits at 300 g/L treated under green house condition measured after 10 days relative to initial level; type: ADME; details: 240 h
Leaf [19] = test: Drug degradation in Solanum lycopersicum (tomato) plant leaves at 300 g/L treated under green house condition measured after 8 days relative to initial level; type: ADME; details: 192 h
Fruit [20] = test: Drug degradation in Solanum lycopersicum (tomato) plant fruits at 300 g/L treated under green house condition measured after 1 day relative to initial level; type: ADME; details: 24 h
Leaf [21] = test: Residue remaining in Solanum lycopersicum (tomato) plant leaves at 300 g/L treated under green house condition measured after 7 days relative to initial level; details: 168 h

Cc1cc(C)nc(Nc2ccccc2)n1 [PYRIMETHANIL]
Drug degradation (Leaf [1]): 0%
Drug degradation (Leaf [2]): 0.02%
Residue remaining (Leaf [3]): 22%
Residue remaining (Fruit [4]): 0%
half-life [5]: 4 days
Drug recovery (Fruit [6]): 99%
Residue remaining (Fruit [7]): 16%
Residue remaining (Leaf [8]): 0%
Drug remaining (Leaf [9]): 100%
Residue remaining (Leaf [10]): 0%
Residue remaining (Fruit [11]): 79%
Residue remaining (Fruit [12]): 5%
Drug remaining (Leaf [13]): 25%
Residue remaining (Leaf [14]): 41%
half-life [15]: 5.7 days
Drug recovery (Leaf [16]): 91%
Residue remaining (Leaf [17]): 11%
Drug remaining (Fruit [18]): 15%
Drug degradation (Leaf [19]): 0%
Drug remaining (Fruit [20]): 100%
Residue remaining (Leaf [21]): 11%

Reference: ChEMBL document CHEMBL3046828, “Disappearance of pyrimethanil residues on tomato plants” (J Agric Food Chem, 2002)
